Measured values from a compilation of properties of binary mixtures (doi:10.1016/j.fluid.2021.113175).

Assay: xn = mol fraction of the nth substance listed
Settings: 100 kPa

CC[N+]1(C)CCCC1.COP(=O)([O-])OC + CCO
viscosity [mPa·s]
Settings	293.15 K	298.15 K	303.15 K	308.15 K	313.15 K	318.15 K	323.15 K	328.15 K	333.15 K	338.15 K
x1 = 0.0534	–	2.03	1.84	1.7	1.59	1.47	–	1.27	1.18	–
x1 = 0.1054	3.4	3.06	2.75	2.51	2.31	–	1.96	–	1.71	1.6
x1 = 0.1535	–	–	–	3.68	3.33	3.06	–	2.61	2.42	2.23
x1 = 0.2015	6.75	6.07	5.35	4.78	4.33	3.97	–	–	–	2.8
x1 = 0.306	13.5	–	10.16	8.72	7.62	6.71	6.04	5.41	4.85	4.4
x1 = 0.4029	23.1	19.4	16.43	13.96	11.88	10.18	8.85	7.81	6.85	6
x1 = 0.5052	37.5	30.3	24.7	–	17.4	14.83	12.49	10.82	9.31	8
x1 = 0.6022	57	45.9	36.3	29.9	24.6	20.4	17.4	–	12.65	10.78
x1 = 0.6938	83.2	64.5	50.1	–	32.4	27	–	19	16.05	13.13
x1 = 0.8049	120.2	91.1	70	54.9	44	35.6	–	–	20.3	16.7
x1 = 0.9073	171	127.5	94.7	73.8	57.5	46.3	38	31	24.5	–
x1 = 1	228	169	–	–	72.8	56.4	45.1	36.6	29.8	–

CCO + COP(=O)([O-])OC.C[N+]1(CCO)CCCC1
x2 = 0
Settings	viscosity [mPa·s]
293.15 K	1.19
303.15 K	0.98
308.15 K	0.9
313.15 K	0.82
318.15 K	0.75
323.15 K	0.69
328.15 K	0.63
333.15 K	0.58
338.15 K	0.54
